From ChEMBL document CHEMBL1201862, “PubChem BioAssay data set” (2004)
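Following 48 hours of exposure in 96-well plates, responses at five concentrations were used to interpolate endpoints linearly. GI50 marks 50% less growth.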 The source made the active and inactive calls. Cut-off read from the data, not from the text of the source: active = GI50 up to about 1.1 µM and inactive = higher.

Legend:
Assay in all cases: growth of human tumour cells (NCI), 48 h
786-0 = system: 786-0
A549 = system: A549
HCT-116 = system: HCT-116
K562 = system: K562
KM12 = system: KM12
LOX IMVI = system: LOX IMVI
MOLT-4 = system: MOLT-4
OVCAR-4 = system: OVCAR-4
OVCAR-5 = system: OVCAR-5
RXF 393 = system: RXF 393
SK-MEL-28 = system: SK-MEL-28
SK-MEL-2 = system: SK-MEL-2
SN12C = system: SN12C
UACC-62 = system: UACC-62
ACHN = system: ACHN
EKVX = system: EKVX
HCC 2998 = system: HCC 2998
NCI-H522 = system: NCI-H522
HL-60 = system: HL-60

Measured: GI50

O=S(=O)(O)c1cc(S(=O)(=O)O)c2c(/N=N/c3ccccc3)c(O)ccc2c1
inactive: 786-0 > 100 µM | A549 > 100 µM | HCT-116 > 100 µM | K562 > 100 µM | KM12 > 100 µM | LOX IMVI > 100 µM | MOLT-4 > 100 µM | OVCAR-4 > 100 µM | OVCAR-5 > 100 µM | RXF 393 > 100 µM | SK-MEL-28 > 100 µM | SK-MEL-2 > 100 µM | SN12C > 100 µM | UACC-62 > 100 µM

CC1CC(=O)C2CC(CO)=CCCC2C1(C)CC/C(=C/CO)CO (configuration not stated)
inactive: 786-0 > 100 µM | A549 > 100 µM | ACHN > 100 µM | EKVX > 100 µM | HCC 2998 > 100 µM | HCT-116 > 100 µM | K562 > 100 µM | KM12 > 100 µM | LOX IMVI > 10 µM | MOLT-4 > 100 µM | NCI-H522 87.9 µM | RXF 393 > 100 µM | SK-MEL-28 > 100 µM | SN12C > 100 µM | UACC-62 > 100 µM

Cn1cc(-c2ccc3c4ccccc4n(C)c3c2)c2ccccc21
inactive: 786-0 > 100 µM | A549 > 100 µM | ACHN > 100 µM | EKVX > 100 µM | HCC 2998 > 100 µM | HCT-116 > 100 µM | HL-60 75 µM | K562 67.9 µM | KM12 93.3 µM | LOX IMVI > 100 µM | MOLT-4 > 100 µM | NCI-H522 > 100 µM | OVCAR-4 > 100 µM | OVCAR-5 > 100 µM | RXF 393 > 100 µM | SK-MEL-28 > 100 µM | SK-MEL-2 > 100 µM | SN12C > 100 µM | UACC-62 > 100 µM

C1CCN2CC3CONC3C2C1 (configuration not stated)
inactive: 786-0 > 100 µM | A549 > 100 µM | ACHN > 100 µM | EKVX > 100 µM | HCC 2998 > 100 µM | HCT-116 > 100 µM | HL-60 > 100 µM | K562 > 100 µM | KM12 > 100 µM | LOX IMVI > 100 µM | MOLT-4 > 100 µM | NCI-H522 > 100 µM | OVCAR-4 > 100 µM | OVCAR-5 > 100 µM | RXF 393 > 100 µM | SK-MEL-28 > 100 µM | SK-MEL-2 > 100 µM | SN12C > 100 µM | UACC-62 > 100 µM

CCOC(=O)CSc1cc[nH]c(=O)n1
inactive: 786-0 > 100 µM | A549 > 100 µM | ACHN > 100 µM | EKVX > 100 µM | HCT-116 > 100 µM | HL-60 > 100 µM | K562 > 100 µM | KM12 > 100 µM | LOX IMVI > 100 µM | MOLT-4 > 100 µM | NCI-H522 > 100 µM | OVCAR-5 > 100 µM | RXF 393 31.6 µM | SK-MEL-2 > 100 µM | SN12C > 100 µM | UACC-62 > 100 µM

COC(=O)N(C(=O)OC)C(C(=O)O)C(C)C (configuration not stated)
inactive: 786-0 > 100 µM | A549 > 100 µM | ACHN > 100 µM | EKVX > 100 µM | HCC 2998 > 100 µM | HL-60 > 100 µM | KM12 > 100 µM | LOX IMVI > 100 µM | NCI-H522 > 100 µM | OVCAR-4 > 100 µM | OVCAR-5 > 100 µM | RXF 393 65 µM | SK-MEL-28 > 100 µM | SK-MEL-2 > 100 µM | SN12C > 100 µM

CSc1nc(-c2ccc(C)cc2)c(C#N)c(=O)[nH]1
inactive: 786-0 > 100 µM | A549 > 100 µM | ACHN > 100 µM | EKVX > 100 µM | HCC 2998 > 100 µM | HCT-116 > 100 µM | HL-60 > 100 µM | K562 > 100 µM | KM12 > 100 µM | MOLT-4 > 100 µM | NCI-H522 > 100 µM | OVCAR-4 > 100 µM | OVCAR-5 > 100 µM | RXF 393 > 100 µM | SK-MEL-28 > 100 µM | SK-MEL-2 > 100 µM | SN12C > 100 µM | UACC-62 > 100 µM

CC1(O)C(C)(O)C(C)(O)C1(C)O (configuration not stated)
inactive: 786-0 > 100 µM | A549 > 100 µM | ACHN > 100 µM | EKVX > 100 µM | HCC 2998 > 100 µM | HCT-116 > 100 µM | HL-60 > 100 µM | K562 > 100 µM | KM12 > 100 µM | LOX IMVI > 100 µM | MOLT-4 > 100 µM | NCI-H522 > 100 µM | OVCAR-4 > 100 µM | OVCAR-5 > 100 µM | RXF 393 > 100 µM | SK-MEL-28 > 100 µM | SK-MEL-2 > 100 µM | SN12C > 100 µM | UACC-62 > 100 µM

Cc1cccc(NC(=O)/C=C/c2ccc(N(CCC#N)CCC#N)cc2C)c1
inactive: 786-0 > 100 µM | A549 > 100 µM | ACHN 70.3 µM | EKVX > 100 µM | HCC 2998 > 100 µM | HCT-116 > 100 µM | HL-60 21.5 µM | K562 16.8 µM | KM12 > 100 µM | LOX IMVI 43.7 µM | MOLT-4 > 100 µM | NCI-H522 > 100 µM | OVCAR-4 > 100 µM | OVCAR-5 > 100 µM | SK-MEL-28 > 100 µM | SK-MEL-2 > 100 µM | SN12C > 100 µM | UACC-62 28 µM

Brc1cccc(C2(CCCC3(c4cccc(Br)n4)OCCO3)OCCO2)n1
inactive: 786-0 59.7 µM | A549 > 100 µM | ACHN > 100 µM | EKVX > 100 µM | HCC 2998 > 100 µM | HCT-116 > 100 µM | K562 > 100 µM | KM12 > 100 µM | LOX IMVI > 100 µM | MOLT-4 > 100 µM | NCI-H522 36.6 µM | OVCAR-4 > 100 µM | OVCAR-5 > 100 µM | RXF 393 72.4 µM | SK-MEL-28 > 100 µM | SK-MEL-2 > 100 µM | SN12C > 100 µM

CC(=O)OC1COC(n2c(=S)n(-c3ccccc3)c(=O)c3cc(Br)ccc32)C(OC(C)=O)C1OC(C)=O (configuration not stated)
inactive: 786-0 34.1 µM | A549 40.4 µM | ACHN > 100 µM | EKVX > 100 µM | HCC 2998 > 100 µM | HCT-116 23.9 µM | HL-60 > 100 µM | K562 > 100 µM | KM12 > 100 µM | LOX IMVI 57.1 µM | MOLT-4 > 100 µM | NCI-H522 45.8 µM | OVCAR-4 7.5 µM | OVCAR-5 > 100 µM | RXF 393 22.2 µM | SK-MEL-28 37.8 µM | SK-MEL-2 45.1 µM | SN12C 71.1 µM | UACC-62 37.3 µM

NC(CCc1ncc(C(=O)O)s1)C(=O)O (configuration not stated)
inactive: 786-0 > 100 µM | A549 > 100 µM | ACHN > 100 µM | EKVX > 100 µM | HCC 2998 > 100 µM | HCT-116 > 100 µM | K562 > 100 µM | KM12 > 100 µM | LOX IMVI > 100 µM | MOLT-4 > 100 µM | NCI-H522 > 100 µM | RXF 393 > 100 µM | SK-MEL-28 > 100 µM | SN12C > 100 µM | UACC-62 > 100 µM

COc1ccc2c(C3(O)CCNCC3)c[nH]c2c1
inactive: 786-0 > 100 µM | A549 > 100 µM | ACHN > 100 µM | EKVX > 100 µM | HCC 2998 > 100 µM | HL-60 > 100 µM | K562 > 100 µM | KM12 > 100 µM | LOX IMVI > 100 µM | MOLT-4 > 100 µM | NCI-H522 > 100 µM | OVCAR-4 > 100 µM | OVCAR-5 > 100 µM | RXF 393 > 100 µM | SK-MEL-28 > 100 µM | SK-MEL-2 > 100 µM | SN12C > 100 µM | UACC-62 > 100 µM

CCCCCCCCSC1=C(Cl)C(=O)C(OC)=C(OC)C1=O
inactive: 786-0 12.5 µM | A549 17.9 µM | ACHN 10 µM | EKVX 10.9 µM | HCC 2998 15.2 µM | HCT-116 4.83 µM | HL-60 2.11 µM | K562 9.71 µM | KM12 7.53 µM | LOX IMVI 4.57 µM | MOLT-4 3.12 µM | NCI-H522 2.47 µM | OVCAR-4 11.1 µM | OVCAR-5 6.67 µM | RXF 393 13.2 µM | SK-MEL-2 15.4 µM | SN12C 5.09 µM | UACC-62 10.3 µM

COC(=O)/C=C1\CCC(C)O1 (configuration not stated)
inactive: 786-0 > 100 µM | A549 > 100 µM | ACHN > 100 µM | EKVX > 100 µM | HCC 2998 > 100 µM | HCT-116 > 100 µM | HL-60 > 100 µM | K562 > 100 µM | KM12 > 100 µM | LOX IMVI > 100 µM | MOLT-4 > 100 µM | OVCAR-4 > 100 µM | OVCAR-5 > 100 µM | RXF 393 > 100 µM | SK-MEL-2 > 100 µM | SN12C > 100 µM | UACC-62 > 100 µM

OCC1OC(n2nc(-c3ccccc3)nc2-c2cnccn2)C(O)C(O)C1O (configuration not stated)
inactive: 786-0 > 100 µM | A549 > 100 µM | HCC 2998 > 100 µM | HCT-116 > 100 µM | HL-60 > 100 µM | K562 > 100 µM | KM12 > 100 µM | LOX IMVI > 100 µM | MOLT-4 > 100 µM | NCI-H522 > 100 µM | OVCAR-4 > 100 µM | OVCAR-5 > 100 µM | SK-MEL-28 > 100 µM | SN12C > 100 µM | UACC-62 > 100 µM
